Measurements as given in patent US11976083B2, “Inhibitors of peptidylarginine deiminases” (Gilead Sciences, Inc., priority 2020, dated 2024).

target: T1, human PAD4 (Homo sapiens, UniProt Q9UM07); test: In vitro PAD4 BAEE biochemical assay; settings: BAEE substrate 3 mM, 5 nM PAD4, 2 mM calcium chloride; geometric mean of multiple experiments
T1 construct: human PAD4 (NM_012387), A2-P663, was PCR amplified; His-SUMO (N, cleaved yes); made in house; host or cells: E. coli BL21(DE3)
Summary of the method: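 Recombinant PAD4 (5 nM final) with 2 mM CaCl2 was preincubated with compound for 30 min at 25 °C in MOPS pH 7.6 buffer with DTT, then reacted with 3 mM BAEE for 2 h at 25 °C. Released ammonia was detected fluorimetrically with o-phthalaldehyde/DTT; IC50 from four-parameter fit, geometric mean of experiments.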

T1 sequence (Q9UM07 2-663): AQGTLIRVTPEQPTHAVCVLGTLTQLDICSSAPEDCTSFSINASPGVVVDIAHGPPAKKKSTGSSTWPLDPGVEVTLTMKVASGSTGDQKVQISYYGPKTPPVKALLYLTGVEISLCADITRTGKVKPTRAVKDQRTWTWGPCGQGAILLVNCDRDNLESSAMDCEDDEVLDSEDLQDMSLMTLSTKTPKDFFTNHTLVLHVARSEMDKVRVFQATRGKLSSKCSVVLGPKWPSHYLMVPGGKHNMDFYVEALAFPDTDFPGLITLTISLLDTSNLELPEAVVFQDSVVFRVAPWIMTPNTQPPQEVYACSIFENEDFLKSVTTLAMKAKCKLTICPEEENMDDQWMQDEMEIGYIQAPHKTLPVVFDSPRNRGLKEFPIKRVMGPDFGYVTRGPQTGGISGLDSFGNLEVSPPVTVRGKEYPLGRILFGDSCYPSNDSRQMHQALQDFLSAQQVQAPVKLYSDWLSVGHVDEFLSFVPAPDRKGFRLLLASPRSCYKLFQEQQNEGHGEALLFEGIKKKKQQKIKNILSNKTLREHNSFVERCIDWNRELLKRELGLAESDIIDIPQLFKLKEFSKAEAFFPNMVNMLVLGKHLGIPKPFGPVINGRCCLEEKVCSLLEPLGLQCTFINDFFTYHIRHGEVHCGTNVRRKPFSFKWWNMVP

Structure (SMILES)	IC50
COc1cc(C(=O)N2CCC[C@@H](N)C2)cc2nc(-c3cc4ccc5nc4n3CCCCCCCC(=O)N[C@@H]5C)n(C)c12 [Example 282, (11~{R})-17-[5-[(3~{R})-3-aminopiperidine-1-carbonyl]-7-methoxy-1-methyl-benzimidazol-2-yl]-11-methyl-1,10,19-triazatricyclo[10.5.2.0^{15,18}]nonadeca-12(19),13,15(18),16-tetraen-9-one]	13 nM
COc1cc(C(=O)N2CCC[C@@H](N)C2)cc2nc(-c3cc4ccc5nc4n3CCCCCCCCC(=O)N[C@@H]5C)n(C)c12 [Example 283, (12~{R})-18-[5-[(3~{R})-3-aminopiperidine-1-carbonyl]-7-methoxy-1-methyl-benzimidazol-2-yl]-12-methyl-1,11,20-triazatricyclo[11.5.2.0^{16,19}]icosa-13(20),14,16(19),17-tetraen-10-one]	13 nM
COc1cc(C(=O)N2CCC[C@@H](N)C2)cc2nc(-c3cc4ccc5nc4n3CCCCCCCCCC(=O)N[C@@H]5C)c(C)n12 [Example 284, (13~{R})-19-[7-[(3~{R})-3-aminopiperidine-1-carbonyl]-5-methoxy-3-methyl-imidazo[1,2-a]pyridin-2-yl]-13-methyl-1,12,21-triazatricyclo[12.5.2.0^{17,20}]henicosa-14(21),15,17(20),18-tetraen-11-one]	52 nM
COc1cc(C(=O)N2[C@H]3CC[C@@H]2[C@H](N)C3)cc2nc(-c3cc4ccc5nc4n3CCCCCCCC(=O)N[C@@H]5C)n(C)c12 [Example 285, (11~{R})-17-[5-[(1~{R},2~{R},4~{S})-2-amino-7-azabicyclo[2.2.1]heptane-7-carbonyl]-7-methoxy-1-methyl-benzimidazol-2-yl]-11-methyl-1,10,19-triazatricyclo[10.5.2.0^{15,18}]nonadeca-12(19),13,15(18),16-tetraen-9-one]	7 nM
COc1cc(C(=O)N2[C@H]3CC[C@@H]2[C@H](N)C3)cc2nc(-c3cc4ccc5nc4n3CCCCCCCCC(=O)N[C@@H]5C)n(C)c12 [Example 286, (12~{R})-18-[5-[(1~{R},2~{R},4~{S})-2-amino-7-azabicyclo[2.2.1]heptane-7-carbonyl]-7-methoxy-1-methyl-benzimidazol-2-yl]-12-methyl-1,11,20-triazatricyclo[11.5.2.0^{16,19}]icosa-13(20),14,16(19),17-tetraen-10-one]	9 nM
COc1cc(C(=O)N2[C@H]3CC[C@@H]2[C@H](N)C3)cc2nc(-c3cc4ccc5nc4n3CCCCCCCCCC(=O)N[C@@H]5C)c(C)n12 [Example 287, (13~{R})-19-[7-[(1~{R},2~{R},4~{S})-2-amino-7-azabicyclo[2.2.1]heptane-7-carbonyl]-5-methoxy-3-methyl-imidazo[1,2-a]pyridin-2-yl]-13-methyl-1,12,21-triazatricyclo[12.5.2.0^{17,20}]henicosa-14(21),15,17(20),18-tetraen-11-one]	55 nM
COc1cc(C(=O)N2C[C@H]3CC[C@@H]2[C@@H]3N)cc2nc(-c3cc4ccc5nc4n3CCCCCCCC(=O)N[C@@H]5C)n(C)c12 [Example 288, (11~{R})-17-[5-[(1~{R},4~{R},7~{R})-7-amino-2-azabicyclo[2.2.1]heptane-2-carbonyl]-7-methoxy-1-methyl-benzimidazol-2-yl]-11-methyl-1,10,19-triazatricyclo[10.5.2.0^{15,18}]nonadeca-12(19),13,15(18),16-tetraen-9-one]	36 nM
COc1cc(C(=O)N2C[C@H]3CC[C@@H]2[C@@H]3N)cc2nc(-c3cc4ccc5nc4n3CCCCCCCCC(=O)N[C@@H]5C)n(C)c12 [Example 289, (12~{R})-18-[5-[(1~{R},4~{R},7~{R})-7-amino-2-azabicyclo[2.2.1]heptane-2-carbonyl]-7-methoxy-1-methyl-benzimidazol-2-yl]-12-methyl-1,11,20-triazatricyclo[11.5.2.0^{16,19}]icosa-13(20),14,16(19),17-tetraen-10-one]	25 nM
COc1cc(C(=O)N2C[C@H]3CC[C@@H]2[C@@H]3N)cc2nc(-c3cc4ccc5nc4n3CCCCCCCCCC(=O)N[C@@H]5C)c(C)n12 [Example 290, (13~{R})-19-[7-[(1~{R},4~{R},7~{R})-7-amino-2-azabicyclo[2.2.1]heptane-2-carbonyl]-5-methoxy-3-methyl-imidazo[1,2-a]pyridin-2-yl]-13-methyl-1,12,21-triazatricyclo[12.5.2.0^{17,20}]henicosa-14(21),15,17(20),18-tetraen-11-one]	221 nM
COc1cc(C(=O)N2CCC[C@@H](N)C2)cc2nc(-c3cc4ccc5nc4n3CCCCCCCCOC5C)n(C)c12 (stereo partly drawn) [Example 291, [(3˜{R})-3-amino-1-piperidyl]-[7-methoxy-1-methyl-2-(11-methyl-10-oxa-1,19-diazatricyclo[10.5.2.0^{15,18}]nonadeca-12(19),13,15(18),16-tetraen-17-yl)benzimidazol-5-yl]methanone]	335 nM
COc1cc(C(=O)N2CCC[C@@H](N)C2)cc2nc(-c3cc4ccc5nc4n3C[C@H]3C[C@@H]3CCCC(C)(C)C(=O)N[C@@H]5C)n(C)c12 [Example 292, (3~{S),5~{S},12~{R})-18-[5-[(3~{R})-3-aminopiperidine-1-carbonyl]-7-methoxy-1-methyl-benzimidazol-2-yl]-9,9,12-trimethyl-1,11,20-triazatetracyclo[11.5.2.0^{3,5}.0^{16,19}] icosa-13(20),14,16(19),17-tetraen-10-one]	53 nM
COc1cc(C(=O)N2CCC[C@@H](N)C2)cc2nc(-c3cc4ccc5nc4n3CCCCCCNC(=O)CO5)c(C)n12 [Example 293, 17-[7-[(3˜{R})-3-aminopiperidine-1-carbonyl]-5-methoxy-3-methyl-imidazo[1,2-a]pyridin-2-yl]-11-oxa-1,8,19-triazatricyclo[10.5.2.0^{15,18}]nonadeca-12(19),13,15(18),16-tetraen-9-one]	548 nM
COc1cc(C(=O)N[C@H]2CNCCC2(F)F)cc2nc(-c3cc4ccc5nc4n3CCCCCCC(C)(C)C(=O)N[C@@H]5C)n(C)c12 [Example 294, ~{N}-[(3~{S})-4,4-difluoro-3-piperidyl]-7-methoxy-1-methyl-2-[(11~{R})-8,8,11-trimethyl-9-oxo-1,10,19-triazatricyclo[10.5.2.0^{15,18}]nonadeca-12(19),13,15(18),16-tetraen-17-yl]benzimidazole-5-carboxamide]	275 nM
COc1cc(C(=O)N[C@H]2CNCC[C@H]2O)cc2nc(-c3cc4ccc5nc4n3CCCCCCC(C)(C)C(=O)N[C@@H]5C)n(C)c12 [Example 295, ~{N}-[(3~{S},4~{R})-4-hydroxy-3-piperidyl]-7-methoxy-1-methyl-2-[(11~{R})-8,8,11-trimethyl-9-oxo-1,10,19-triazatricyclo[10.5.2.0^{15,18}]nonadeca-12(19),13,15(18),16-tetraen-17-yl]benzimidazole-5-carboxamide]	3350 nM
COc1cc(C(=O)N[C@@H]2CNCCC2(F)F)cc2nc(-c3cc4ccc5nc4n3CCCCCCC(C)(C)C(=O)N[C@@H]5C)n(C)c12 [Example 296, ~{N}-[(3~{R})-4,4-difluoro-3-piperidyl]-7-methoxy-1-methyl-2-[(11~{R})-8,8,11-trimethyl-9-oxo-1,10,19-triazatricyclo[10.5.2.0^{15,18}]nonadeca-12(19),13,15(18),16-tetraen-17-yl]benzimidazole-5-carboxamide]	23700 nM
